Source: patent US6106872A, “Process for obtaining aroma components and aromas from their precursors of a glycosidic nature, and aroma components and aromas thereby obtained” (Gist-brocades NV, priority 1988, dated 2000)
“Also recorded” adds a separate entry of the source.

Tests used:
[1] = Sequential enzymatic hydrolysis of HPLC fractions (peaks A and B), GC analysis; type: biochemical, Muscat de Frontignan variety grapes
Description: The benefits of high performance liquid chromatography were exploited for isolating some terpene glycosides. For this purpose, fractions were collected as they emerged from the chromatographic system (more especially on elution of the peaks A and B) during the separation of the constituents of the glycosidic extract. (FIG. 10 below). Fifteen successive injections of 20 μl each enabled sufficient material to be isolated for the enzymatic hydrolyses and the analyses by GC to be performed in order to identify the compounds in question.
The chromatographic system consists of the following components: a Vista 5500 chromatograph equipped with a variable wavelength UV/visible spectrophotometer (Varian Assoc., Sunnyvale, Calif., USA); a six-way injection valve (Valco) equipped with a 20-μl loop; a stainless steel column (220×4 mm I.D.) filled with Spheri-5 (Brownlee Labs., Santa Clara, Calif., USA) octadecyl grafted silica of small particle size (5 μm); as well as a precolumn (37×4 mm I.D.) packed with the same stationary phase.
The chromatography is carried out using a water/-acetonitrile aqueous-organic mobile phase (reversed-phase polarity chromatography) and an elution graduated according to an increase in the acetonitrile content from 30 to 40% (by volume) in the course of 10 minutes. The elution solvent is pumped at a flow rate of 1 ml/min. The detection is performed at 200 nm and 0.5 absorbance unit full-scale.
Furthermore, each fraction was subjected to the sequential action of α-arabinosidase and then β-glucosidase. At the end of each stage and according to the procedures described, the incubated medium was analysed by GC in order to test for sugars and glucosides on the one hand, and for terpenols on the other hand. Thus, the peaks A and B were identified, respectively, as neryl and geranyl α-L-arabinofuranosyl-β-D-glucopyranosides. The identity of the geranyl glycoside was verified, in addition, by co-injection of the glycosidic extract with the synthetic compound.

[2] = Enzymatic hydrolysis on natural media by commercial enzyme preparations; type: biochemical, Muscat d'Alexandrie variety grapes; settings: Hemicellulase + Naringinase, 25° C., 86 hours
Description: The enzymatic hydrolysis of a glycosidic extract incorporated, on the one hand into a natural medium (must or dry wine), and on the other hand into a reference medium (buffer), by the action of commercial preparations containing the requisite three glycosidases, was studied.
A juice and a wine of a vine variety not containing terpenols and terpene glycosides, but enriched beforehand with a known amount of glycosidic extract of muscat, are treated with commercial enzyme preparations. The media, as well as controls, are incubated at 25° C. for 86 hours (see the experimental protocol plan below). They are then passed through a column of Amberlite XAD-2 according to the protocol applied for the production of the glycosidic extract, and the terpenols are assayed by GC.
(4) The glycosidic extract used is obtained by passing a must of Muscat d'Alexandrie variety grapes through Amberlite XAD-2. The amount of glycosidic extract (1 ml) added in the tests corresponds to that found in 50 ml of must of Muscat d'Alexandrie variety grapes.

[3] = Enzymatic hydrolysis of a glycosidic extract (TLC and GC monitoring); type: biochemical, Muscat de Frontignan variety grapes; settings: for % of monoglucosides: Table 5, both enzymes together; for Terpene monoglucosides liberated by α-arabinosidase / Terpene monoglucosides liberated by α-rhamnosidase: Table 5, percentage of the total amount liberated by the two enzymes
Description: Thin-layer adsorption chromatography was carried out on pieces of aluminum foil covered with a thin layer (0.2 mm) of silica gel (5553 Silica gel 60 without a fluorescence indicator, Merck). An ethyl acetate/isopropanol/water (65:30:10 v/v/v) mixture was used as a migration solvent.
The sugars and the glycosides are visualized by means of the following mixture, prepared immediately before use: 0.2% napthoresorcinol in ethanol/concentrated sulphuric acid (19:1 v/v). The application of this visualizing agent is followed by drying the plates in the oven (105° C.) for 15 minutes. Apart from their migration distance, the various compounds are also distinguished by their color. The glycosides are purple-red, the arabinosides are bluish, rhamnose greenish pink, arabinose blue and glucose pink.
40 μl of glycosidic extract and 60 μl of a solution of Glc-pNP (internal standard) at a concentration of 50 mg/l in ethyl acetate are introduced into a suitable flask. The mixture is taken to dryness at 40° C. with a stream of nitrogen. 40 μl of the silylating reagent (Tri-sil, Pierce, Rockford, Ill., USA) are then introduced; the flask is sealed and maintained at 40° C. for 20 minutes. After rapid cooling, the silylated sample is then ready for analysis by GC.
The apparatus used consists of a Series 30C gas chromatograph, an "on-column" injector (injected volume 0.5 μl) and a flame ionization detector (Girdel, France). A thin film (0.20 μm) of an OV-1 (girdel) apolar silicone phase is grafted onto the inner wall of the capillary column ([…].). The oven temperature is programmed from 125 to 305° C. at the rate of 5° C./minute, then maintained at 305° C. for 15 minutes. Finally, the detector temperature is set at 300° C. and hydrogen is used as the carrier gas at a pressure of 120 kPa.
The monoterpene alcohols studied here are sufficiently volatile to be chromatographed as they are. To the pentane extract containing them, the internal standard, 4-nonanol (for synthesis, Merck, Darmstadt, FRG) is added in the proportion of 1 μl of a solution at a concentration of 2.89 mg/ml in pentane per 50 μl of medium. The mixture is then dried over sodium sulphate, filtered through glass wool and then concentrated to a volume in the region of 100 μl. For this purpose, the pentane is first removed using a conventional still, and then a Dufton type column of a size suited to the volume remaining to be concentrated.
The constituents of the concentrated extract are separated using a capillary column (25 m×0.32 mm I.D.) containing a CP wax 52 CB (Chrompack, Middelburg, Netherlands) polar phase. The grafted polyethylene glycol film was selected thick (1.28 μm) in order to permit the injection of large sample volumes, up to 4 μl. The analysis is performed using a Fractovap Series 2900 (Carlo Erba, Milan, Italy) chromatograph, equipped with a flame ionization detector maintained at 250° C. and an "on-column" injector. Hydrogen was used as the carrier gas at a pressure of 60 kPa, and the oven temperature was programmed as follows: isothermal at 70° C. for 5 minutes, followed by a rise to 195° C. at the rate of 2° C./minute and a plateau at 195° C. for 15 minutes.
The glycosidic extract was obtained by extraction of a must of Muscat de Frontignan variety grapes collected at maturity in the vines of the Station Experimentale de Pech Rouge (INRA Gruissan, France), followed by removal of the free terpenols and sugars.
The glycoside fraction was taken to dryness under vacuum and then taken up in 18 ml of water. The glycosidic extract used in the chromatographic and enzymatic experiments was thereby obtained.
The experimental protocols for the enzymatic hydrolysis on the glycosidic extract are collated in Table 3. […]

[4] = Enzymatic hydrolyses on synthetic substrates (TLC, pNP, GC); type: biochemical; settings: from the synthetic glycosides
Description: The enzymatic hydrolysis is followed by thin-layer chromatography (TLC) and by gas chromatography (GC).
In all the tests relating to the enzymatic hydrolysis of the synthetic substrates, the same glycosidase activity (0.15 nkat) is used for each of the enzymes (α-arabinosidase, α-rhamnosidase, β-glucosidase).

Structure (SMILES) | Terpene monoglucosides liberated by α-arabinosidase [3] [%] | Terpene monoglucosides liberated by α-rhamnosidase [3] [%] | % of monoglucosides [3] [%] | other results
CC(C)=CCC/C(C)=C\CO[C@@H]1O[C@H](CO[C@@H]2O[C@@H](CO)[C@H](O)[C@H]2O)[C@@H](O)[C@H](O)[C@H]1O (single isomer, unassigned) [Peak A, neryl α-L-arabinofuranosyl-(1--> 6)-β-D-glucopyranoside] | – | – | – | Compounds appearing after action of α-arabinosidase [1]: arabinose; also recorded: Glc--Ner; Compounds appearing after action of α-arabinosidase and then β-glucosidase [1]: glucose; also recorded: nerol
CC(C)=CCC/C(C)=C/CO[C@@H]1O[C@H](CO[C@@H]2O[C@@H](CO)[C@H](O)[C@H]2O)[C@@H](O)[C@H](O)[C@H]1O (single isomer, unassigned) [Peak B, geranyl α-L-arabinofuranosyl-(1--> 6)-β-D-glucopyranoside] | – | – | – | Compounds appearing after action of α-arabinosidase [1]: arabinose; also recorded: Glc--Ger; Compounds appearing after action of α-arabinosidase and then β-glucosidase [1]: glucose; also recorded: geraniol
OCc1ccccc1 [Benzyl alcohol, benzyl alcohol] | – | – | – | Compounds liberated relative to the reference medium ([2]; MUST (pH 3.4, sugars 180 g/l)): 46%; Compounds liberated relative to the reference medium ([2]; WINE (dry white, pH 3.1)): 50%
C=CC(C)(CCC=C(C)C)O[C@@H]1O[C@H](CO)[C@@H](O)[C@H](O)[C@H]1O (stereo partly drawn) [Glc--Lin, linalyl β-D-glucopyranoside] | 10 | 9 | 19 | –
C=CC(C)(O)CCC=C(C)C (stereo not drawn) [Linalol, linalool] | – | – | – | Compounds liberated relative to the reference medium ([2]; MUST (pH 3.4, sugars 180 g/l)): 9%; Compounds liberated relative to the reference medium ([2]; WINE (dry white, pH 3.1)): 14%
O=[N+]([O-])c1ccc(O)cc1 [pNP, p-nitrophenol] | – | – | – | liberation of the aglycones [4]: liberated only after the sequential action of both glycosidases

More lines, main results first:

Terpene monoglucosides liberated by α-arabinosidase [3] [%] | Terpene monoglucosides liberated by α-rhamnosidase [3] [%] | Structure (SMILES) | % of monoglucosides [3] [%] | other results
39 | 9 | CC(C)=CCC/C(C)=C/CO[C@@H]1O[C@H](CO)[C@@H](O)[C@H](O)[C@H]1O [Glc--Ger, geranyl β-D-glucopyranoside] | 48 | –
28 | 5 | CC(C)=CCC/C(C)=C\CO[C@@H]1O[C@H](CO)[C@@H](O)[C@H](O)[C@H]1O [Glc--Ner, neryl β-D-glucopyranoside] | 33 | –
